Results from US11666589B2, “Pivarubicin and benzarubicin compositions” (Paradox Pharmaceuticals, Inc., priority 2020, dated 2023).

Tests used:
[1] = system: 32D.3 murine myeloid cells; assay: Drug biotransformation analysis (HPLC of intracellular drug) in 32D.3 cells; assay type: in vitro ADME
Description: (§1) Intracellular drug was extracted and analyzed by fluorescence HPLC as described previously.

[2] = system: 293 embryonic human kidney cells; assay: Drug biotransformation analysis (HPLC of intracellular drug) in 293 cells; assay type: in vitro ADME
Description: as §1

[3] = system: J774.2 murine macrophage-like cells; assay: Drug biotransformation analysis (HPLC of intracellular drug) in J774.2 cells; assay type: in vitro ADME
Description: as §1

[4] = system: 32D.3, J774.2 and 293 cells; assay: Biotransformation to AD 288 after uptake into cells; assay type: in vitro ADME; conditions: 8 hours after drug uptake into cells
Description: as §1

CEM/VLB-10 = conditions: CEM/VLB-10, selecting drug; cited from earlier work
CEM/VLB-100 = conditions: CEM/VLB-100, selecting drug; cited from earlier work

Structure (SMILES) | % Parent Compound ([1]; 32D.3, 1 hr, 1 μM drug, 37° C.) [%] | % Parent Compound ([1]; 32D.3, 8 hr (1 hr drug + 7 hours drug-free medium)) [%] | % Parent Compound ([2]; 293, 1 hr, 1 μM drug, 37° C.) [%] | % Parent Compound ([2]; 293, 8 hr (1 hr drug + 7 hours drug-free medium)) [%] | % Parent Compound ([3]; J774.2, 1 hr, 1 μM drug, 37° C.) [%] | % Parent Compound ([3]; J774.2, 8 hr (1 hr drug + 7 hours drug-free medium)) [%] | biotransformation to N-benzyladriamycin (AD 288) [4] | resistance (CEM/VLB-10) [fold] | resistance (CEM/VLB-100) [fold]
CCCCC(=O)OCC(=O)[C@]1(O)Cc2c(O)c3c(c(O)c2[C@@H](O[C@H]2C[C@H](NCc4ccccc4)[C@H](O)[C@H](C)O2)C1)C(=O)c1c(OC)cccc1C3=O [AD 198, N-Benzyladriamycin-14-valerate] | 90 | 56 | 80 | 50 | 90 | 50 | approximately 50% |  | 
CC[C@]1(O)C[C@@H]2CN(CCc3c([nH]c4ccccc34)[C@@](C(=O)OC)(c3cc4c(cc3OC)N(C)[C@H]3[C@@](O)(C(=O)OC)[C@H](OC(C)=O)[C@]5(CC)C=CCN6CC[C@]43[C@@H]65)C2)C1 [vinblastine] |  |  |  |  |  |  |  | 10.6 | 269
